Assays:
[1] = system: circulating levels of luteinizing hormone (LH); assay: Castrated male rat model, circulating luteinizing hormone (LH); format: in vivo; settings: castrated male SD rats, single oral dose less than or equal to 30 mg/kg, p<0.05
Procedure: Castrated male rat model to assess the effect of compound of invention on circulating levels of luteinizing hormone (LH)
The effect of compounds of the invention to inhibit luteinizing hormone (LH) secretion is determined by the following biological studies.
In humans and rodents, castration is well-precedented to permit heightened, persistent GnRH signaling and consequent elevation of circulating LH. Thus, a castrated rat model is used to provide a broad index for measurement of LH inhibition as a marker of test compound inhibition of the GnRH signaling pathway.
Castrated adult male Sprague-Dawley (SD) rats (150-175 g) were purchased from Janvier (St Berthevin, France). All animals were housed 2 per cage in a temperature-controlled room (22±2° C.) and 50±5% relative humidity with a 12 hour/12 hour light/dark cycles (lights off at 6h00 pm). The animals were allowed 3 weeks of postoperative recovery prior to study. Animals were handled on a daily basis. Standard diet and tap water were provided ad libitum. Animal cage litters were changed once a week. On the study day, animals were acclimated to the procedure room for a period of one hour prior to the initiation of the experiment.
Compounds of the invention were formulated in 0.5% methyl cellulose.
After basal sampling (T0) a single dose of compounds of the invention or vehicle was administrated orally to rats. Blood samples were then collected at several time points post dosing (45, 90, 150, 300 and 420 minutes). Blood samples were obtained via tail vein bleed, drawn into EDTA-containing tubes and centrifuged immediately. Plasma samples were collected and stored in a −80° C. freezer until assayed. Serum LH levels were determined using radioimmunoassay kit from RIAZEN—Rat LH, Zentech (Liège, Belgium). Baseline was defined as the initial basal blood sample.

plasma testosterone = assay: Plasma testosterone in gonad intact male rats; format: in vivo, rat; settings: gonad intact male SD rats, 3 mg/kg single oral administration, vs vehicle, over the test period
Procedure: The study was designed to evaluate the effect of compounds of the invention on testosterone circulating levels following oral administration at 3 mg/kg on SD gonad intact male rats.
Two groups of non-fasted rats (male, Sprague-Dawley, 200 to 225 g; n=4 rats/group) with jugular vein cannulation, were dosed via a single oral administration of compounds of the invention at 3 mg/kg. The control group was dosed with the vehicle. Compounds of the invention were prepared in a dose formulation of pyrogen-free water with 0.5% methylcellulose. Blood samples were collected via the catheter implanted in the jugular vein at pre-determined intervals using EDTA-3K as anti-coagulant. Samples were chilled and rapidly processed by centrifugation to obtain corresponding plasma samples. Testosterone hormone levels were determined by RIA performed on plasma samples collected for all the groups at 5 minutes before administration (basal time), and at 45, 90, 150, 300, 480 minutes and 24 hours after dosing.

body temperature = assay: Thermoregulation in ovariectomized (OVX) ewes; format: in vivo, ewe; settings: 1 mg/kg intravenous bolus
From the text: After 4 months recovery, animals were acclimatised to housing in single pens for a period of 7 days with ad libitum access to water and […] lucerne hay. One day prior to experimentation, the animals received a jugular vein cannula ([…], Tuta Laboratories, Lane Cove, Australia). The cannulae were kept patent with heparinised saline. On the day of the experiment, compound no 5 of the present invention was formulated in physiological saline with 9% 2-hydroxypropyl-β-cyclodextrin at a concentration of 2 mg/mL. Compound no 5 (1 mg/kg, N=5) or vehicle (N=5) was administered at 11h00 by intravenous bolus injection at a dose volume of 0.5 mL/kg through the jugular cannula and the injected material was flushed into the animal with 5 mL of heparinised saline. Animals were fed at 12h00. Rectal temperatures were monitored with a probe at hourly intervals throughout the experiment, starting at 7h40 and concluding at 15h40. […] However, this pyrogenic response to feeding in ovarectomized ewes was not observed in any animals treated with compound no 5. […] Graphical data presented as mean±SEM for vehicle-treated versus compound no 5-treated ewes (N=5/group). Statistical analyses performed by 2-way ANOVA followed by Sidak's Multiple Comparisons Test between treatment groups at the indicated time interval, *p<0.05.

plasma estradiol levels = assay: Estradiol circulating level in female rats; format: in vivo, rat; settings: adult female rats, 10 mg/kg b.i.d. oral, 10 days, two consecutive estrous cycles
Procedure: The aim of this study was to evaluate the effect of compounds of the invention on plasma estradiol levels following oral administration at 10 mg/kg (b.i.d.) for a period of 10 days in female rats.
Two groups of adult, female rats (Sprague-Dawley, ˜320 g) were treated in-phase with their individual estrous cycles. Thus, treatment was started in the proestrus phase (coincident with peak estradiol levels, as shown on Day 1 in FIG. 3) and rats were dosed twice daily (˜9h30 and 17h30) by oral administration either with a compound of the invention at 10 mg/kg or with the vehicle for the control group. Compounds of the invention were prepared in a dose formulation of pyrogen-free water with 0.5% methylcellulose. Estradiol levels were determined for all groups by ELISA performed on plasma samples derived from blood collections taken at 30 minutes before the daily, 9h30 test article administration on all days presented in FIG. 3.

Structure (SMILES)	Effect on circulating LH levels [1]	also measured
CCc1nsc(-c2nnc3n2CCN(C(=O)c2ccc(F)cc2)[C@@H]3C)n1 [Compound 2, (R)-(3-(3-ethyl-1,2,4-thiadiazol-5-yl)-8-methyl-5,6-dihydro-[1,2,4]triazolo[4,3-a]pyrazin-7(8H)-yl)(4-fluorophenyl)methanone]	significantly suppressed circulating LH levels	
Cc1nsc(-c2nnc3n2CCN(C(=O)c2ccccc2)[C@@H]3C)n1 [Compound 20, (R)-(8-methyl-3-(3-methyl-1,2,4-thiadiazol-5-yl)-5,6-dihydro-[1,2,4]triazolo[4,3-a]pyrazin-7(8H)-yl)(phenyl)methanone]	significantly suppressed circulating LH levels	
Cc1nsc(-c2nnc3n2CCN(C(=O)c2ccc(F)cc2)[C@@H]3C)n1 [Compound 5, (R)-(4-fluorophenyl)(8-methyl-3-(3-methyl-1,2,4-thiadiazol-5-yl)-5,6-dihydro-[1,2,4]triazolo[4,3-a]pyrazin-7(8H)-yl)methanone]	significantly suppressed circulating LH levels	Effect on plasma testosterone level (plasma testosterone): significantly suppressed plasma testosterone level; Pyrogenic response to feeding (body temperature): not observed; Effect on estradiol levels (plasma estradiol levels): significantly decreased estradiol levels
Cc1nsc(-c2nnc3n2CCN(C(=O)c2ccc(F)c(F)c2F)[C@@H]3C)n1 [Compound 8, (R)-(8-methyl-3-(3-methyl-1,2,4-thiadiazol-5-yl)-5,6-dihydro-[1,2,4]triazolo[4,3-a]pyrazin-7(8H)-yl)(2,3,4-trifluorophenyl)methanone]	significantly suppressed circulating LH levels	
Cc1nsc(-c2nnc3n2CCN(C(=O)c2ccc(F)c(F)c2)[C@@H]3C)n1 [Compound 9, (R)-(3,4-difluorophenyl)(8-methyl-3-(3-methyl-1,2,4-thiadiazol-5-yl)-5,6-dihydro-[1,2,4]triazolo[4,3-a]pyrazin-7(8H)-yl)methanone]	significantly suppressed circulating LH levels	
Cc1nsc(-c2nnc3n2CCN(C(=O)c2ccc(Cl)c(Cl)c2)[C@@H]3C)n1 [Compound 1, (R)-(3,4-dichlorophenyl)(8-methyl-3-(3-methyl-1,2,4-thiadiazol-5-yl)-5,6-dihydro-[1,2,4]triazolo[4,3-a]pyrazin-7(8H)-yl)methanone]	significantly suppressed circulating LH levels	
CCc1noc(-c2nnc3n2CCN(C(=O)c2ccc(-c4cccs4)cc2)[C@@H]3C)n1 [Compound 30, (R)-(3-(3-ethyl-1,2,4-oxadiazol-5-yl)-8-methyl-5,6-dihydro-[1,2,4]triazolo[4,3-a]pyrazin-7(8H)-yl)(4-(thiophen-2-yl)phenyl)methanone]	significantly suppressed circulating LH levels	
Cc1nsc(-c2nnc3n2CCN(C(=O)c2ccc(Cl)c(F)c2)[C@@H]3C)n1 [Compound 4, (R)-(4-chloro-3-fluorophenyl)(8-methyl-3-(3-methyl-1,2,4-thiadiazol-5-yl)-5,6-dihydro-[1,2,4]triazolo[4,3-a]pyrazin-7(8H)-yl)methanone]	significantly suppressed circulating LH levels	
CCc1noc(-c2nnc3n2CCN(C(=O)c2ccc(F)cc2)[C@@H]3C)n1 [Compound 13, (R)-(3-(3-ethyl-1,2,4-oxadiazol-5-yl)-8-methyl-5,6-dihydro-[1,2,4]triazolo[4,3-a]pyrazin-7(8H)-yl)(4-fluorophenyl)methanone]	significantly suppressed circulating LH levels	
